Assays:
[1] = Inhibition of naringinase in Penicillium decumbens after 30 mins by spectrophotometric analysis
[2] = Inhibition of beta-mannosidase in Roman snail after 30 mins by spectrophotometric analysis; parameters: species or system Helix pomatia
[3] = Inhibition of alpha-mannosidase in jack bean after 30 mins by spectrophotometric analysis; parameters: species or system Canavalia ensiformis
[4] = Inhibition of beta-glucosidase in almond after 30 mins by spectrophotometric analysis; parameters: species or system Prunus dulcis
[5] = Inhibition of alpha-glucosidase in yeast after 30 mins by spectrophotometric analysis; parameters: species or system Saccharomyces cerevisiae
Beta-galactosidase = biological target: T1, Beta-galactosidase (Bos taurus, UniProt Q58D55); test: Inhibition of beta-galactosidase in bovine liver after 30 mins by spectrophotometric analysis
T1 sequence (Q58D55 whole entry): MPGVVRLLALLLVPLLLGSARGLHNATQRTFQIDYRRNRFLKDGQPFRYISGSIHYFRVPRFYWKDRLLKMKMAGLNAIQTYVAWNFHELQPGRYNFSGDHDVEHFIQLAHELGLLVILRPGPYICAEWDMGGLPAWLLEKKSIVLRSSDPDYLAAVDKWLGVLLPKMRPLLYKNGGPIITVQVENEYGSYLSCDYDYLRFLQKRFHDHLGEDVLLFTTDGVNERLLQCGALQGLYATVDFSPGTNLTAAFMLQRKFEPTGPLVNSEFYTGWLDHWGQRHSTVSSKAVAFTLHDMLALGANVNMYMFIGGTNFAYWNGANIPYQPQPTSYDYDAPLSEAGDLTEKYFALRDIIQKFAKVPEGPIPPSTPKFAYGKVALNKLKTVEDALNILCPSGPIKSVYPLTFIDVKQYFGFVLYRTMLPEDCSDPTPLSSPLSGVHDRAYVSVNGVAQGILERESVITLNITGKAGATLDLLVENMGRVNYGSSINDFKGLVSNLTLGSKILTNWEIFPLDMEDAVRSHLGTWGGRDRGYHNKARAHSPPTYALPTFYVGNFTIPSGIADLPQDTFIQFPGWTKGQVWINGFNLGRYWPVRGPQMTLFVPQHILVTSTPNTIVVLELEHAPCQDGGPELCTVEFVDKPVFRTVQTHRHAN

Alpha-galactosidase = Alpha-galactosidase (Coffea arabica, UniProt Q42656); test: Inhibition of alpha-galactosidase in green coffee bean after 30 mins by spectrophotometric analysis
Sequence of Alpha-galactosidase (Q42656 whole entry): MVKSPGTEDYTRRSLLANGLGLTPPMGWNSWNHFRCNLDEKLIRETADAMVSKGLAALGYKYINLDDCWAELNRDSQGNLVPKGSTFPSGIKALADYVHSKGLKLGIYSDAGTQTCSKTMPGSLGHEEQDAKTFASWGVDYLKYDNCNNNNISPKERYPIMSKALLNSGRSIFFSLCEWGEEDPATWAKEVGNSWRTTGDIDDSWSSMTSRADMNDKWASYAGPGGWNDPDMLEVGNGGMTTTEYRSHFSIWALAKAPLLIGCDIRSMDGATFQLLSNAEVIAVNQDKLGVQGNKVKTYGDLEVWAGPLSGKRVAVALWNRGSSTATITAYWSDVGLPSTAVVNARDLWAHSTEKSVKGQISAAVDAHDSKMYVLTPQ

Row | SMILES | IC50 [1] | IC50 [2] | IC50 [3] | IC50 [4] | IC50 [5] | IC50 (Beta-galactosidase) | IC50 (Alpha-galactosidase)
1 | N=C(NCCO)N1C[C@H](O)[C@@H](O)[C@H](O)[C@H]1CO | 645 µM |  | > 1000 µM | 457 µM | 133 µM | > 1000 µM | 540 µM
2 | CCCCNC(=O)N1C[C@H](O)[C@@H](O)[C@H](O)[C@H]1CO | > 1000 µM | > 1000 µM | > 1000 µM | > 1000 µM | > 1000 µM | 27 µM | > 1000 µM
3 | N=C(NCCOCCO)N1C[C@H](O)[C@@H](O)[C@H](O)[C@H]1CO | 172 µM |  | > 1000 µM | > 1000 µM | 251 µM | > 1000 µM | > 1000 µM
4 | CCCCCCCCNC(=N)N1C[C@H](O)[C@@H](O)[C@H](O)[C@H]1CO | 67 µM |  | 55 µM | 25 µM | 31 µM | 2.6 µM | 23 µM
5 | OC[C@H]1NC[C@H](O)[C@@H](O)[C@@H]1O [DUVOGLUSTAT] | 33 µM | > 1000 µM | > 1000 µM | 312 µM | 167 µM |  | 
6 | CCCCNC(=N)N1C[C@H](O)[C@@H](O)[C@H](O)[C@H]1CO | > 1000 µM | 408 µM | 113 µM | 41 µM | 20 µM | 15 µM | 18 µM

Further molecules by falling IC50 [1], results first:

Row | IC50 [1] | IC50 [2] | IC50 [3] | IC50 [4] | IC50 [5] | IC50 (Beta-galactosidase) | IC50 (Alpha-galactosidase) | SMILES
7 | 33 µM |  | > 1000 µM | 67 µM | > 1000 µM | 6.2 µM | > 1000 µM | N=C(NCCCc1ccccc1)N1C[C@H](O)[C@@H](O)[C@H](O)[C@H]1CO
8 | 27 µM |  | > 1000 µM | 4.3 µM | > 1000 µM | 5.1 µM | > 1000 µM | N=C(NCc1ccccc1)N1C[C@H](O)[C@@H](O)[C@H](O)[C@H]1CO
9 | 22 µM |  | > 1000 µM | 489 µM | 131 µM | 5.4 µM | > 1000 µM | N=C(NCCCOCC12CC3CC(CC(C3)C1)C2)N1C[C@H](O)[C@@H](O)[C@H](O)[C@H]1CO
10 | 6 µM | > 1000 µM | > 1000 µM | 59 µM | 134 µM | > 1000 µM | 251 µM | CCCCCCN1C[C@H](O)[C@@H](O)[C@H](O)[C@H]1CO

From ChEMBL document CHEMBL3132848, “Glycosidase inhibition by novel guanidinium and urea iminosugar derivatives” (Medchemcomm, 2013)
